Biological target: T1, F508del (Homo sapiens, UniProt P13569, DEL508-508)
T1 construct: expressed in transfected cells
Test: Protocol 2: FRET membrane potential optical assay (VIPR), identification of correction compounds
Type: cell-based
Details: Table 3; compounds of Table 1 as modulators of CFTR activity; protocol not stated
Procedure, shortened: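 NIH3T3 mouse fibroblasts stably expressing F508del were treated with test compound for 16 hrs at 37° C. in serum-free medium; 27° C. incubation served as positive control. F508del was activated with 10 μM forskolin plus 20 μM genistein in Cl^−-free medium, and Cl^− efflux-driven depolarization was read by DiSBAC2(3)/CC2-DMPE FRET.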

T1 sequence (P13569 with tags, fused parts or gaps DEL508-508): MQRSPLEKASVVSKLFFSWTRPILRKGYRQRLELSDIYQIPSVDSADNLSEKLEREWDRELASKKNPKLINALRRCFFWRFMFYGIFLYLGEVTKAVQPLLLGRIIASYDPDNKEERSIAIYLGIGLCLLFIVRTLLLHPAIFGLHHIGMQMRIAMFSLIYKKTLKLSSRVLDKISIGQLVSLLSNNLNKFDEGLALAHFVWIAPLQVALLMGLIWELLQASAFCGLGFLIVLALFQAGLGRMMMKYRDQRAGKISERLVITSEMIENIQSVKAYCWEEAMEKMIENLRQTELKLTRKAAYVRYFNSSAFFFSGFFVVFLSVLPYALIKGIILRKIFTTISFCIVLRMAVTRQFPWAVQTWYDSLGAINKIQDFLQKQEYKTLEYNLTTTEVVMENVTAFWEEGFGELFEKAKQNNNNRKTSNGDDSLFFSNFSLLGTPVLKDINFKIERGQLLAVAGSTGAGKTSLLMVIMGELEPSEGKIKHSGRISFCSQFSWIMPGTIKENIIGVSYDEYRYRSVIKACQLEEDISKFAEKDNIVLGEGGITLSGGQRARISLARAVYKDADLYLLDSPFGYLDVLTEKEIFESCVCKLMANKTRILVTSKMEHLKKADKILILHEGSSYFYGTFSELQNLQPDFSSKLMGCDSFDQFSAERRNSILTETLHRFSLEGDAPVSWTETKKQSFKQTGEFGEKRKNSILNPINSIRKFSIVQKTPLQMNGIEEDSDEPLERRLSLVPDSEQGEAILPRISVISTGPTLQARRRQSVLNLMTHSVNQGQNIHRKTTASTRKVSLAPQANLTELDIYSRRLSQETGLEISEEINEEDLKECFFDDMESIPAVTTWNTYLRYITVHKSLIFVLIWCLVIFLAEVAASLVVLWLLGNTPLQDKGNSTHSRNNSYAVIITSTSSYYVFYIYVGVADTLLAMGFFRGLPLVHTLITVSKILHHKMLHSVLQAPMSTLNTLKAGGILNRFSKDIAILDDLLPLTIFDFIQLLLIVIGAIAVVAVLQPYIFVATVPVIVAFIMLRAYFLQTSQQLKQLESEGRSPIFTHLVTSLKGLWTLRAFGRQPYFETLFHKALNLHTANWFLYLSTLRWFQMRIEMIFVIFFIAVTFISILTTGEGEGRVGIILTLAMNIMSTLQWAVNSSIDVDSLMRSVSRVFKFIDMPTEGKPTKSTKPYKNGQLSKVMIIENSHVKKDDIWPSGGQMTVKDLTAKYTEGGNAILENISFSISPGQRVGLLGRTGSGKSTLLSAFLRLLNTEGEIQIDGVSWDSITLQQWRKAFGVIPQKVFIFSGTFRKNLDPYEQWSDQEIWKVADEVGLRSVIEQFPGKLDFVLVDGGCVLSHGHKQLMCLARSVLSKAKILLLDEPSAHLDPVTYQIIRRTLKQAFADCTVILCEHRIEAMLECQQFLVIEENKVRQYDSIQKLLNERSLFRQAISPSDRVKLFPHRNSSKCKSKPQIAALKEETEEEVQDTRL

Compound: CC(C)COc1cc(F)cc(-c2ccc(C(=O)NS(=O)(=O)c3cccc(N)n3)c(N3CC(C)CC(C)(C)C3)n2)c1 (stereo not shown) [Compound 560, N-[(6-amino-2-pyridyl)sulfonyl]-6-(3-fluoro-5-isobutoxy-phenyl)-2-(3,3,5-trimethyl-1-piperidyl)pyridine-3-carboxamide]
- EC30: +++ (“+++” means <3 uM)

Compound: Cc1cc(C)c(Oc2nc(-c3ccc(F)cc3)ccc2C(=O)NS(=O)(=O)c2ccc[nH]c2=O)c(C)c1 [Compound 561, 6-(4-fluorophenyl)-N-[(2-oxo-1H-pyridin-3-yl)sulfonyl]-2-(2,4,6-trimethylphenoxy)pyridine-3-carboxamide]
- EC30: +++ (“+++” means <3 uM)

Compound: CC(C)COc1cc(F)cc(-c2ccc(C(=O)NS(=O)(=O)c3cccc(N)n3)c(OC(C)c3cccc(F)c3)n2)c1 (stereo not shown) [Compound 562, N-[(6-amino-2-pyridyl)sulfonyl]-6-(3-fluoro-5-isobutoxy-phenyl)-2-[1-(3-fluorophenyl)ethoxy]pyridine-3-carboxamide]
- EC30: +++ (“+++” means <3 uM)

Compound: CC(C)COc1ccc(-c2ccc(C(=O)NS(=O)(=O)c3cccc(N)n3)c(N3[C@H](C)CC[C@@H]3C)n2)cc1 [Compound 563, N-[(6-amino-2-pyridyl)sulfonyl]-2-[(2S,5R)-2,5-dimethylpyrrolidin-1-yl]-6-(4-isobutoxyphenyl)pyridine-3-carboxamide]
- EC30: +++ (“+++” means <3 uM)

Compound: Cc1cc(C)c(Oc2nc(-n3cccn3)ccc2C(=O)NS(=O)(=O)c2cccc(N)n2)c(C)c1 [Compound 564, N-[(6-amino-2-pyridyl)sulfonyl]-6-pyrazol-1-yl-2-(2,4,6-trimethylphenoxy)pyridine-3-carboxamide]
- EC30: ++ (“++” means between 3 uM and 10 uM)

Compound: CC(C)COc1cc(F)cc(-c2ccc(C(=O)NS(=O)(=O)c3ccn[nH]3)c(N3CCC(F)(F)C3)n2)c1 [Compound 565, 2-(3,3-difluoropyrrolidin-1-yl)-6-(3-fluoro-5-isobutoxy-phenyl)-N-(1H-pyrazol-5-ylsulfonyl)pyridine-3-carboxamide]
- EC30: + (“+” means greater than 10 uM)

Compound: Cc1cc(C)c(Cn2nc(C(C)C)cc2C(=O)NS(=O)(=O)c2cccc(N)c2)c(C)c1 [Compound 566, N-(3-aminophenyl)sulfonyl-5-isopropyl-2-[(2,4,6-trimethylphenyl)methyl]pyrazole-3-carboxamide]
- EC30: + (“+” means greater than 10 uM)

Compound: CC(C)Oc1ccc(-c2ccc(C(=O)NS(=O)(=O)c3cccc(N)n3)c(N3CCCCC3)n2)cn1 [Compound 567, N-[(6-amino-2-pyridyl)sulfonyl]-6-(6-isopropoxy-3-pyridyl)-2-(1-piperidyl)pyridine-3-carboxamide]
- EC30: ++ (“++” means between 3 uM and 10 uM)

Compound: CN=S(=O)(NC(=O)c1ccc(C(C)(C)C)nc1Oc1c(C)cc(C)cc1C)c1cccc(N)c1 (stereo not drawn) [Compound 568, N—[S-(3-aminophenyl)-N-methyl-sulfonimidoyl]-6-tert-butyl-2-(2,4,6-trimethylphenoxy)pyridine-3-carboxamide]
- EC30: +++ (“+++” means <3 uM)

Compound: CC(C)CNc1ccc(-c2ccc(C(=O)NS(=O)(=O)c3cccc(N)n3)c(N3CC(C)CC3(C)C)n2)cn1 (stereo not shown) [Compound 569, N-[(6-amino-2-pyridyl)sulfonyl]-6-[16-(isobutylamino)-3-pyridyl]-2-(2,2,4-trimethylpyrrolidin-1-yl)pyridine-3-carboxamide]
- EC30: +++ (“+++” means <3 uM)

Compound: Cc1cc(C)c(Oc2nc(-c3cccc(F)c3)ccc2C(=O)NS(=O)(=O)c2cccc(N)n2)c(C)c1 [Compound 570, N-[(6-amino-2-pyridyl)sulfonyl]-6-(3-fluorophenyl)-2-(2,4,6-trimethylphenoxy)pyridine-3-carboxamide]
- EC30: +++ (“+++” means <3 uM)

Compound: CC(C)(C)c1ccc(C(=O)NS(=O)(=O)c2cccc(N)n2)c(N2CCCCC2)n1 [Compound 571, N-[(6-amino-2-pyridyl)sulfonyl]-6-tert-butyl-2-(1-piperidyl)pyridine-3-carboxamide]
- EC30: ++ (“++” means between 3 uM and 10 uM)

Compound: C[C@@H]1CC[C@H](C)N1c1nc(-c2cc(F)cc(OCC(C)(C)C)c2)ccc1C(=O)NS(=O)(=O)c1ccc[nH]c1=O [Compound 572, 6-[3-(2,2-dimethylpropoxy)-5-fluoro-phenyl]-2-[(2S,5R)-2,5-dimethylpyrrolidin-1-yl]-N-[(2-oxo-1H-pyridin-3-yl)sulfonyl]pyridine-3-carboxamide]
- EC30: +++ (“+++” means <3 uM)

Compound: Cc1cc(C)c(Oc2nc(C3=CCC(C)(C)CC3)ccc2C(=O)NS(=O)(=O)c2ccc[nH]c2=O)c(C)c1 [Compound 573, 6-(4,4-dimethylcyclohexen-1-yl)-N-[(2-oxo-1H-pyridin-3-yl)sulfonyl]-2-(2,4,6-trimethylphenoxy)pyridine-3-carboxamide]
- EC30: +++ (“+++” means <3 uM)

Compound: COCC1CCCCN1c1nc(-c2ccc(OC(C)C)nc2)ccc1C(=O)NS(=O)(=O)c1cccc(N)n1 (stereo not shown) [Compound 574, N-[(6-amino-2-pyridyl)sulfonyl]-6-(6-isopropoxy-3-pyridyl)-2-[2-(methoxymethyl)-1-piperidyl]pyridine-3-carboxamide]
- EC30: ++ (“++” means between 3 uM and 10 uM)

Compound: CC(C)COc1cc(F)cc(-c2ccc(C(=O)NS(=O)(=O)c3cccc(N)n3)c(N3CCC(C)C(C)(C)C3)n2)c1 (stereo not shown) [Compound 575, N-[(6-amino-2-pyridyl)sulfonyl]-6-(3-fluoro-5-isobutoxy-phenyl)-2-(3,3,4-trimethyl-1-piperidyl)pyridine-3-carboxamide]
- EC30: +++ (“+++” means <3 uM)

Compound: C[C@H](COCc1ccccc1)Oc1ccc(-c2ccc(C(=O)NS(=O)(=O)c3cccc(N)n3)c(N3[C@H](C)CC[C@@H]3C)n2)cn1 [Compound 576, N-[(6-amino-2-pyridyl)sulfonyl]-6-[6-[(1R)-2-benzyloxy-1-methyl-ethoxy]-3-pyridyl]-2-[(2S,5R)-2,5-dimethylpyrrolidin-1-yl]pyridine-3-carboxamide]
- EC30: +++ (“+++” means <3 uM)

Compound: Cc1cc(C)c(Oc2nc(-c3cnn(CC(C)C)c3)ccc2C(=O)NS(=O)(=O)c2cc[nH]n2)c(C)c1 [Compound 577, 6-(1-isobutylpyrazol-4-yl)-N-(1H-pyrazol-3-ylsulfonyl)-2-(2,4,6-trimethylphenoxy)pyridine-3-carboxamide]
- EC30: ++ (“++” means between 3 uM and 10 uM)

Compound: CC(C)Oc1ccc(-c2ccc(C(=O)NS(=O)(=O)c3cccc(N)n3)c(N3CCC4(CC3)CC4)n2)cn1 [Compound 578, N-[(6-amino-2-pyridyl)sulfonyl]-2-(6-azaspiro[2.5]octan-6-yl)-6-(6-isopropoxy-3-pyridyl)pyridine-3-carboxamide]
- EC30: +++ (“+++” means <3 uM)

Compound: Cc1cc(C)c(Oc2nc(-c3ccc(Cl)cc3)ccc2C(=O)NS(=O)(=O)c2ccc[nH]c2=O)c(C)c1 [Compound 579, 6-(4-chlorophenyl)-N-[(2-oxo-1H-pyridin-3-yl)sulfonyl]-2-(2,4,6-trimethylphenoxy)pyridine-3-carboxamide]
- EC30: +++ (“+++” means <3 uM)

Compound: CCC(CC)Oc1cccc(-c2ccc(C(=O)NS(=O)(=O)c3cccc(N)n3)c(N3CC(C)CC3(C)C)n2)n1 (stereo not shown) [Compound 580, N-[(6-amino-2-pyridyl)sulfonyl]-6-[6-(1-ethylpropoxy)-2-pyridyl]-2-(2,2,4-trimethylpyrrolidin-1-yl)pyridine-3-carboxamide]
- EC30: +++ (“+++” means <3 uM)

Compound: CC(C)COc1cc(F)cc(-c2ccc(C(=O)NS(=O)(=O)c3cccc(N)n3)c(N3C[C@@H]4CC[C@@H](C4)C3)n2)c1 [Compound 581, N-[(6-amino-2-pyridyl)sulfonyl]-2-[(1R,5S)-3-azabicyclo[3.2.1]octan-3-yl]-6-(3-fluoro-5-isobutoxy-phenyl)pyridine-3-carboxamide]
- EC30: +++ (“+++” means <3 uM)

Compound: Cc1cc(C)c(Oc2nc(-c3c[nH]nc3C(F)(F)F)ccc2C(=O)NS(=O)(=O)c2cccc(N)n2)c(C)c1 [Compound 582, N-[(6-amino-2-pyridyl)sulfonyl]-6-[3-(trifluoromethyl)-1H-pyrazol-4-yl]-2-(2,4,6-trimethylphenoxy)pyridine-3-carboxamide]
- EC30: ++ (“++” means between 3 uM and 10 uM)

Compound: CC(C)COc1cc(F)cc(-c2ccc(C(=O)NS(=O)(=O)c3ccccc3)c(N3CCC(C)(C)CC3)n2)c1 [Compound 583, N-(benzenesulfonyl)-2-(4,4-dimethyl-1-piperidyl)-6-(3-fluoro-5-isobutoxy-phenyl)pyridine-3-carboxamide]
- EC30: +++ (“+++” means <3 uM)

Compound: Cc1cc(C)c(Oc2nc(-c3cnn(C)c3C)ccc2C(=O)NS(=O)(=O)c2cccc(N)n2)c(C)c1 [Compound 584, N-[(6-amino-2-pyridyl)sulfonyl]-6-(1,5-dimethylpyrazol-4-yl)-2-(2,4,6-trimethylphenoxy)pyridine-3-carboxamide]
- EC30: ++ (“++” means between 3 uM and 10 uM)

Compound: CCOc1cc(F)cc(-c2ccc(C(=O)NS(=O)(=O)c3cc[nH]n3)c(Oc3c(C)cc(C)cc3C)n2)c1 [Compound 585, 6-(3-ethoxy-5-fluoro-phenyl)-N-(1H-pyrazol-3-ylsulfonyl)-2-(2,4,6-trimethylphenoxy)pyridine-3-carboxamide]
- EC30: +++ (“+++” means <3 uM)

Compound: Cc1cc(C)c(Oc2nc(-c3cc(F)cc(OCC(C)C)c3)ccc2C(=O)NS(=O)(=O)c2cncc(N)n2)c(C)c1 [Compound 586, N-(6-aminopyrazin-2-yl)sulfonyl-6-(3-fluoro-5-isobutoxy-phenyl)-2-(2,4,6-trimethylphenoxy)pyridine-3-carboxamide]
- EC30: +++ (“+++” means <3 uM)

Compound: CC(C)COc1cc(F)cc(-c2ccc(C(=O)NS(=O)(=O)c3cccc(N)n3)c(N3CC(C)CC3C)n2)c1 (stereo not shown) [Compound 587, N-[(6-amino-2-pyridyl)sulfonyl]-2-(2,4-dimethylpyrrolidin-1-yl)-6-(3-fluoro-5-isobutoxy-phenyl)pyridine-3-carboxamide]
- EC30: +++ (“+++” means <3 uM)

Reference: patent publication US10758534B2 (Vertex Pharmaceuticals Incorporated, priority 2014, dated 2020)
